This is an account of results in patent US12637461B2, “Compounds for the activation of AMPK” (PFIZER INC., priority 2022, dated 2026).

The test has as its target T1, human AMPK α2β2γ3 (Homo sapiens, UniProt O43741+P54646+Q9UGI9).
T1 construct: expressed in transfected cells; host or cells: HEK293AD cells, MaxCyte bulk electroporation
In words: Primary cellular assay: γ3 associated phospho-Thr172 AMPK detection (custom pAMPK Surefire AlphaLISA) in α2β2γ3 bulk transiently transfected HEK293 cells. It counts as cell-based. Conditions: activation of human AMPK α2β2γ3 (γ3 pThr172 AMPK signal) in transiently transfected HEK293 cells, 20 minutes compound incubation; for EC50: geometric mean EC50, read-out: Assay GMean EC50; for Assay GMean Asy. Max (%) / Emax: geometric mean of the asymptotic max; for Emax: 20 min, read-out: Assay GMean Asy. Max (%). In a few lines:
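Transiently co-transfected (α2/β2/γ3 plasmids, electroporation) HEK293AD cells, plated 2 days in low-glucose DMEM+10% FBS, treated 20 min with compounds (11-point half-log dilutions). Lysates read by modified AlphaLISA capturing γ3 with pThr172 antibody detection. % effect relative to 30 μM HPE and DMSO; EC50 and Emax from curve fit.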

T1 sequence (P54646 whole entry): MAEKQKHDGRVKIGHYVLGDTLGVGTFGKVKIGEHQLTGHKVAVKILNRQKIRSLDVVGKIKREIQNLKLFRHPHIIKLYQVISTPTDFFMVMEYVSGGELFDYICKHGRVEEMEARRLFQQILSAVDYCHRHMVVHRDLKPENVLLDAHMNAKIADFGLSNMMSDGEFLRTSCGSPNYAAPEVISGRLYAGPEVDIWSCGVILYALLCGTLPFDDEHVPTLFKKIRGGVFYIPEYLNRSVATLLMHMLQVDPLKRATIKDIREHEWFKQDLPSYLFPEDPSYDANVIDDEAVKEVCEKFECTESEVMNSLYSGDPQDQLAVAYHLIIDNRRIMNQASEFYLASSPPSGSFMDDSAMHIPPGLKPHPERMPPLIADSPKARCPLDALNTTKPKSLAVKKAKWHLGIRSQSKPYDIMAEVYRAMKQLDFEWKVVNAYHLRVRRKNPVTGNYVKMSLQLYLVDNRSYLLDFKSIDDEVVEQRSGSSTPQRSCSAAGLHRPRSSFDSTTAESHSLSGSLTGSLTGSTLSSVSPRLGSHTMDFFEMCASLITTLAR
T1 sequence (O43741 whole entry): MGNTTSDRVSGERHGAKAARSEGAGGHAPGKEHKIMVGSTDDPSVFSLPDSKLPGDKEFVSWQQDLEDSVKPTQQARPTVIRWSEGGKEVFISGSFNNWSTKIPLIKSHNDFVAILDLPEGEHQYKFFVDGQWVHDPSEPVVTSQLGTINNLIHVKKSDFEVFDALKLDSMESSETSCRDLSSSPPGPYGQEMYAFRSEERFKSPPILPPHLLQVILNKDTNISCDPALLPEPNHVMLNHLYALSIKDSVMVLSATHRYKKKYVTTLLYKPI
T1 sequence (Q9UGI9 whole entry): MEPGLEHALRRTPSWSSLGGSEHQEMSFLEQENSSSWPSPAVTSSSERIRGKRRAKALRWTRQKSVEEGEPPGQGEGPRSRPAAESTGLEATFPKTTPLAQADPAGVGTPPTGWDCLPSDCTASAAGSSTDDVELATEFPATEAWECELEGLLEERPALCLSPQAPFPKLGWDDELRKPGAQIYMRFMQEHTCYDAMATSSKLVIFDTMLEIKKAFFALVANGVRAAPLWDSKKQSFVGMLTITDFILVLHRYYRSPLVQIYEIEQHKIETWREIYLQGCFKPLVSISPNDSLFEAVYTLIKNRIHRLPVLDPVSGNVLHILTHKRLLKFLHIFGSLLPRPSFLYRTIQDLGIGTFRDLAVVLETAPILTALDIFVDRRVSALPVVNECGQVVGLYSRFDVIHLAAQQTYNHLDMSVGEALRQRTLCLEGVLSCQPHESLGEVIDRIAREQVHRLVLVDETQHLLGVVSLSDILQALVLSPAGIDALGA

For orientation: EC50 means the concentration at which the effect is half-maximal. Take `COCC(C)(O)C(=O)N1CC(Nc2ncc3c(c2F)C(C)(c2cccc(Cl)c2F)CN(c2nn(C)cc2F)C3=O)C1` (single isomer, unassigned) [compound 47]: the concentration giving a half-maximal response (EC50) was found to be 0.264 µM and the “Assay GMean Asy. Max (%)” value came to 105%.
With `Cn1cc(F)c(N2CC(C)(c3cccc(Cl)c3F)c3nc(NC4CN(C(=O)[C@@H]5C[C@@H]5F)C4)ncc3C2=O)n1` (single isomer, unassigned) [Example 30], the Emax was 178% and the half-maximal effective concentration (EC50) turned out to be 0.74 µM.
For the compound `COCCN(C(=O)CN1CC(Nc2ncc3c(c2F)[C@@](C)(c2cccc(Cl)c2F)CN(c2nn(C)cc2F)C3=O)C1)C1CC1` [compound 75, 2-(3-{[(5R)-5-(3-chloro-2-fluorophenyl)-4-fluoro-7-(4-fluoro-1-methyl-1H-pyrazol-3-yl)-5-methyl-8-oxo-5,6,7,8-tetrahydro-2,7-naphthyridin-3-yl]amino}azetidin-1-yl)-N-cyclopropyl-N-(2-methoxyethyl)acetamide], the Emax was found to be 134% and the concentration giving a half-maximal response (EC50) came out at 0.0521 µM.
The corresponding values for `Cn1cnc(N2C[C@](C)(c3cccc(Cl)c3F)c3c(cnc(NC4CN(C(=O)[C@@H]5C[C@@H]5F)C4)c3F)C2=O)c1` [compound 94, (4R)-4-(3-chloro-2-fluorophenyl)-5-fluoro-6-({1-[(1S,2S)-2-fluorocyclopropane-1-carbonyl]azetidin-3-yl}amino)-4-methyl-2-(1-methyl-1H-imidazol-4-yl)-3,4-dihydro-2,7-naphthyridin-1(2H)-one] are 50.3% and 0.212 µM.
The corresponding values for `C[C@]1(c2cccc(Cl)c2F)CN(c2ncccc2F)C(=O)c2cnc(NC3CN(C(=O)C4(O)CC4)C3)c(F)c21` [Example 1, (4R)-4-(3-Chloro-2-fluorophenyl)-5-fluoro-2-(3-fluoropyridin-2-yl)-6-{[1-(1-hydroxycyclopropane-1-carbonyl)azetidin-3-yl]amino}-4-methyl-3,4-dihydro-2,7-naphthyridin-1(2H)-one] are 112% and 0.0336 µM.
The corresponding values for `C[C@]1(c2cccc(Cl)c2F)CN(c2ccc(OC(F)F)cn2)C(=O)c2cnc(NC3CN(C(=O)[C@@H]4C[C@@H]4F)C3)c(F)c21` [compound 50, (4R)-4-(3-chloro-2-fluorophenyl)-2-[5-(difluoromethoxy)pyridin-2-yl]-5-fluoro-6-({1-[(1S,2S)-2-fluorocyclopropane-1-carbonyl]azetidin-3-yl}amino)-4-methyl-3,4-dihydro-2,7-naphthyridin-1(2H)-one] are 63.7% and 0.233 µM.
As to `CC1(c2cccc(Cl)c2F)CN(c2ncccc2F)C(=O)c2cnc(NC3CN(C(=O)[C@](C)(O)C(F)(F)F)C3)nc21` (single isomer, unassigned) [compound 111], the Emax is 159% and the EC50 was 0.342 µM.
The corresponding values for `C[C@@H](O)c1ccc(N2C[C@](C)(c3cccc(Cl)c3F)c3c(cnc(NC4CN(C(=O)[C@@H]5C[C@@H]5F)C4)c3F)C2=O)nc1` [Example 18, (4R)-4-(3-Chloro-2-fluorophenyl)-5-fluoro-6-({1-[(1S,2S)-2-fluorocyclopropane-1-carbonyl]azetidin-3-yl}amino)-2-{5-[(1R)-1-hydroxyethyl]pyridin-2-yl}-4-methyl-3,4-dihydro-2,7-naphthyridin-1(2H)-one] are 79.2% and 0.165 µM.
Regarding `Cn1cc(F)c(N2CC(C)(c3cccc(Cl)c3F)c3c(ccc(NC4CN(C5CCCNC5=O)C4)c3F)C2=O)n1` (stereo not drawn) [Example 35, 4-(3-Chloro-2-fluorophenyl)-5-fluoro-2-(4-fluoro-1-methyl-1H-pyrazol-3-yl)-4-methyl-6-{[1-(2-oxopiperidin-3-γ1)azetidin-3-yl]amino}-3,4-dihydroisoquinolin-1(2H)-one], the EC50 worked out at 0.0272 µM and the “Assay GMean Asy. Max (%)” value turned out to be 119%.
As for `Cc1c(F)ccc(C2(C)CN(c3ncccc3F)C(=O)c3cnc(NC4CN(C(=O)C5(O)CC5)C4)c(F)c32)c1F` (stereo not drawn) [compound 106, 4-(2,4-difluoro-3-methylphenyl)-5-fluoro-2-(3-fluoropyridin-2-yl)-6-{[1-(1-hydroxycyclopropane-1-carbonyl)azetidin-3-yl]amino}-4-methyl-3,4-dihydro-2,7-naphthyridin-1(2H)-one, from P5 (ENANT-2)], the Emax came to 70.5% and the EC50 worked out at 0.0339 µM.
The corresponding values for `C[C@]1(c2cccc(Cl)c2F)CN(c2cc(N)ccn2)C(=O)c2cnc(NC3CN(C(=O)[C@@H]4C[C@@H]4F)C3)c(F)c21` [compound 93, (4R)-2-(4-aminopyridin-2-yl)-4-(3-chloro-2-fluorophenyl)-5-fluoro-6-({1-[(1S,2S)-2-fluorocyclopropane-1-carbonyl]azetidin-3-yl}amino)-4-methyl-3,4-dihydro-2,7-naphthyridin-1(2H)-one] are 57.5% and 0.0653 µM.
The corresponding values for `Cn1cc(F)c(N2C[C@](C)(c3cccc(Cl)c3F)c3c(cnc(NC4CN(CC(N)=O)C4)c3F)C2=O)n1` [compound 68, 2-(3-{[(5R)-5-(3-chloro-2-fluorophenyl)-4-fluoro-7-(4-fluoro-1-methyl-1H-pyrazol-3-yl)-5-methyl-8-oxo-5,6,7,8-tetrahydro-2,7-naphthyridin-3-yl]amino}azetidin-1-yl)acetamide] are 29.6% and 0.247 µM.
As to `CN(C(=O)CN1CC(Nc2ncc3c(c2F)[C@@](C)(c2cccc(Cl)c2F)CN(c2nn(C)cc2F)C3=O)C1)C1CC1` [Example 11, 2-(3-{[(5R)-5-(3-Chloro-2-fluorophenyl)-4-fluoro-7-(4-fluoro-1-methyl-1H-pyrazol-3-yl)-5-methyl-8-oxo-5,6,7,8-tetrahydro-2,7-naphthyridin-3-yl]amino}azetidin-1-yl)-N-cyclopropyl-N-methylacetamide], the Emax was found to be 160% and the 50% effective concentration (EC50) amounted to 0.0227 µM.
The corresponding values for `Cn1cc(F)c(N2C[C@](C)(c3cccc(Cl)c3F)c3c(cnc(NC4CN(CC(=O)N(CC(F)(F)F)C5CC5)C4)c3F)C2=O)n1` [compound 74, 2-(3-{[(5R)-5-(3-chloro-2-fluorophenyl)-4-fluoro-7-(4-fluoro-1-methyl-1H-pyrazol-3-yl)-5-methyl-8-oxo-5,6,7,8-tetrahydro-2,7-naphthyridin-3-yl]amino}azetidin-1-yl)-N-cyclopropyl-N-(2,2,2-trifluoroethyl)acetamide] are 129% and 0.0399 µM.
The corresponding values for `CC1(c2cccc(Cl)c2F)CN(c2ncccc2F)C(=O)c2cnc(NC3CN(C(=O)[C@@H]4CC45CCOCC5)C3)nc21` (single isomer, unassigned) [compound 82] are 218% and 0.107 µM.
As for `CC1(c2cccc(Cl)c2F)CN(c2ncccc2F)C(=O)c2cnc(NC3CN(C(=O)CO)C3)nc21` (single isomer, unassigned) [Example 26, 8-(3-Chloro-2-fluorophenyl)-6-(3-fluoropyridin-2-yl)-2-{[1-(hydroxyacetyl)azetidin-3-yl]amino}-8-methyl-7,8-dihydropyrido[4,3-d]pyrimidin-5(6H)-one], the Emax was determined as 47.6% and the 50% effective concentration (EC50) is 0.183 µM.
For `Cn1cc(F)c(N2CC(C)(c3ccc(F)c(Cl)c3F)c3c(cnc(NC4CN(C(=O)[C@@H]5C[C@@H]5F)C4)c3F)C2=O)n1` (single isomer, unassigned) [Example 23], the Emax stood at 91.4% and the half-maximal effective concentration (EC50) amounted to 0.0281 µM.
The corresponding values for `CC1(c2cccc(F)c2F)CN(c2ncccc2F)C(=O)c2cnc(NC3CN(C(=O)C4(O)CC4)C3)c(F)c21` (stereo not drawn) [compound 108, 4-(2,3-difluorophenyl)-5-fluoro-2-(3-fluoropyridin-2-yl)-6-{[1-(1-hydroxycyclopropane-1-carbonyl)azetidin-3-yl]amino}-4-methyl-3,4-dihydro-2,7-naphthyridin-1(2H)-one, from P7 (ENANT-2)] are 76.8% and 0.123 µM.
The corresponding values for `C[C@]1(c2cccc(Cl)c2F)CN(c2ccc(N)cn2)C(=O)c2cnc(NC3CN(C(=O)[C@@H]4C[C@@H]4F)C3)c(F)c21` [Example 15, (4R)-2-(5-aminopyridin-2-yl)-4-(3-chloro-2-fluorophenyl)-5-fluoro-6-({1-[(1S,2S)-2-fluorocyclopropane-1-carbonyl]azetidin-3-yl}amino)-4-methyl-3,4-dihydro-2,7-naphthyridin-1(2H)-one] are 61.5% and 0.0315 µM.
For the compound `Cn1cc(F)c(N2C[C@](C)(c3cccc(Cl)c3F)c3c(cnc(NC4CN(C(=O)C(O)CC(F)(F)F)C4)c3F)C2=O)n1` (single isomer, unassigned) [compound 44], the EC50 stood at 0.0781 µM and the “Assay GMean Asy. Max (%)” value is 77.9%.
As for `C[C@]1(c2cccc(Cl)c2F)CN(c2ccc([C@@H]3COCCN3)cc2)C(=O)c2cnc(NC3CN(C(=O)[C@@H]4C[C@@H]4F)C3)c(F)c21` [compound 53, (4R)-4-(3-chloro-2-fluorophenyl)-5-fluoro-6-({1-[(1S,2S)-2-fluorocyclopropane-1-carbonyl]azetidin-3-yl}amino)-4-methyl-2-{4-[(3R)-morpholin-3-yl]phenyl}-3,4-dihydro-2,7-naphthyridin-1(2H)-one], the Emax is 91% and the EC50 was 0.131 µM.
